Measurements taken from ChEMBL document CHEMBL5528067, “From Synergy to Monotherapy: Discovery of Novel 2,4,6-Trisubstituted Triazine Hydrazone Derivatives with Potent Antifungal Potency In Vitro and In Vivo” (J Med Chem, 2024).
In brackets after ≈: the same amount, converted by molar mass. Activity calls are given as the source filed them. The rule behind the calls is not given here.

Legend:
[1] = tested on: Candida albicans; test: Antifungal activity against FCZ-resistant Candida albicans strains assessed as growth inhibition in presence of FCZ measured after 48 hrs incubation by CLSI based micro-dilution broth method; type: functional
[2] = tested on: Candida albicans; test: Suppression of BCR1 gene expression in Candida albicans SC5314 assessed as fold increase at 8 microg/ml by real time RT-PCR analysis relative to control; type: functional; settings: dose 8.0 µg/ml
[3] = tested on: Candida albicans; test: Antifungal activity against FCZ-resistant Candida albicans strain 904 assessed as growth inhibition measured after 48 hrs incubation by CLSI based micro-dilution broth method; type: functional
[4] = tested on: Candida albicans; test: Effect on of BRG1 gene expression in Candida albicans SC5314 at 4 to 8 microg/ml by real time RT-PCR analysis; type: functional; settings: dose 4-8 µg/ml
[5] = tested on: Candida albicans; test: Induction of cell wall component change in Candida albicans SC5314 assessed as irregular and shrunken cell membrane chitin structure at 4 microg/ml measured after 12 hrs by transmission electron microscopy; type: functional, organism-based; settings: dose 4.0 µg/ml
[6] = Metabolic stability in mouse liver microsomes assessed as half life measured upto 60 mins by LC-MS/MS analysis; type: ADME, Microsome
[7] = tested on: Candida albicans; test: Antibiofilm activity against Candida albicans SC5314 assessed as inhibition of biofilm formation at 64 microg/ml incubated for 24 hrs by XTT/menadione reduction assay relative to control; type: functional; set-up: scale not given: the % may be the effect or the level left; settings: dose 64 µg/ml
[8] = tested on: Candida albicans; test: Antifungal activity against FCZ-resistant Candida albicans 10231 assessed as growth inhibition measured after 48 hrs incubation by CLSI based micro-dilution broth method; type: functional
[9] = tested on: Candida albicans; test: Upregulation of SAP6 gene expression in Candida albicans SC5314 assessed as fold increase at 4 microg/ml by real time RT-PCR analysis relative to control; type: functional; settings: dose 4.0 µg/ml
[10] = tested on: Candida albicans; test: Upregulation of SAP2 gene expression in Candida albicans SC5314 assessed as fold increase at 4 microg/ml by real time RT-PCR analysis relative to control; type: functional; settings: dose 4.0 µg/ml
[11] = tested on: Candida albicans; test: Suppression of ALS3 gene expression in Candida albicans SC5314 at 4 to 8 microg/ml by real time RT-PCR analysis; type: functional; settings: dose 4-8 µg/ml
[12] = tested on: Candida albicans; test: Antibiofilm activity against Candida albicans SC5314 assessed as biofilm disruption at 32 microg/ml incubated for 24 hrs by XTT/menadione reduction assay relative to control; type: functional; set-up: scale not given: the % may be the effect or the level left; settings: dose 32 µg/ml
[13] = tested on: Candida albicans; test: Effect on HWP1 gene expression in Candida albicans SC5314 at 4 to 8 microg/ml by real time RT-PCR analysis; type: functional; settings: dose 4-8 µg/ml
[14] = tested on: Candida albicans; test: Effect on sterol biosynthesis in Candida albicans SC5314 assessed as sterol component and content at 4 microg/ml measured after 8 hrs by GC-MS analysis; type: functional, organism-based; settings: dose 4.0 µg/ml
[15] = MRT (0 to t) in Sprague-Dawley rat at 2 mg/kg, iv measured upto 24 hrs by LC-MS/MS analysis; type: ADME, organism-based; settings: in vivo
[16] = tested on: Pichia kudriavzevii; test: Antifungal activity against FCZ-resistant Candida krusei 4996 assessed as growth inhibition at 4 microg/ml measured at 24 hrs incubation by time growth assay; type: functional, organism-based; settings: dose 4.0 µg/ml
[17] = Clearance in Sprague-Dawley rat at 2 mg/kg, iv measured upto 24 hrs by LC-MS/MS analysis; type: ADME, organism-based; settings: in vivo
[18] = Metabolic stability in mouse liver microsomes assessed as intrinsic clearance measured per mg of protein upto 60 mins by LC-MS/MS analysis; type: ADME, Microsome; settings: read-out: CLH
[19] = tested on: Pichia kudriavzevii; test: Antifungal activity against Candida krusei 4996 assessed as growth inhibition measured after 48 hrs incubation by CLSI based micro-dilution broth method; type: functional
[20] = tested on: Candida albicans; test: Antifungal activity against FCZ-resistant Candida albicans SC5314 assessed as growth inhibition measured after 48 hrs incubation by CLSI based micro-dilution broth method; type: functional

Question: Which MIC80 [1] does the source give for `O=[N+]([O-])c1ccc(O)c(/C=N/Nc2nc(NCc3ccc(F)cc3)nc(NCc3ccc(F)cc3)n2)c1` here?
Answer: The MIC80 was 0.5 µg/mL.

Question: What about the fold change (FC) [2] of the same molecule?
Answer: Its fold change (FC) is 1.58.

Question: What about the MIC80 [3] of the same molecule?
Answer: Its MIC80 is 1 µg/mL (≈ 1.97 µM).

Question: And the Activity [4]?
Answer: Its Activity is “inactive”.

Question: What about the Activity [5] of the same molecule?
Answer: The Activity was “Active”.

Question: What about the half-life [6] of the same molecule?
Answer: The half-life was 55.8 min.

Question: What about the Activity [7] of the same molecule?
Answer: Its Activity is 70%.

Question: And the MIC80 [8]?
Answer: The MIC80 was 16 µg/mL (≈ 31.6 µM).

Question: What about the fold change (FC) [9] of the same molecule?
Answer: The fold change (FC) was 4.38.

Question: What about the fold change (FC) [10] of the same molecule?
Answer: Its fold change (FC) is 1.86.

Question: And the Activity [11]?
Answer: The Activity was “Active”.

Question: And the Activity [12]?
Answer: The Activity was less than 30%.

Question: What about the Activity [13] of the same molecule?
Answer: Its Activity is “inactive”.

Question: And the Activity [14]?
Answer: Its Activity is “inactive”.

Question: What about the MRT last at 24 h [15] of the same molecule?
Answer: Its MRT last at 24 h is 45 min.

Question: What about the Activity [16] of the same molecule?
Answer: Its Activity is “Active”.

Question: What about the clearance [17] of the same molecule?
Answer: The clearance was 22.9 mL/min/kg.

Question: What about the microsomal CLint [18] of the same molecule?
Answer: The microsomal CLint was 24.9 µL/min/mg.

Question: And the MIC80 [19]?
Answer: Its MIC80 is 1 µg/mL (≈ 1.97 µM).

Question: What about the MIC80 [20] of the same molecule?
Answer: The MIC80 was 4 µg/mL (≈ 7.9 µM).
